Results taken from US11104674B2 (Hoffmann-La Roche Inc., priority 2016, dated 2021).

Tested on: HBsAg
Assay: HBsAg assay (chemiluminescence immunoassay of secreted HBsAg)
Type: cell-based, HBV
Settings: HepG2.2.15 cells, CLIA of culture supernatant
Experimental: HepG2.2.15 cells (Acs et al. Proc Natl Acad Sci USA, 84, (1987), 4641-4), a constitutively HBV-expressing cell line were cultured in DMEM+Glutamax-I medium (Invitrogen, Carlsbad, Calif., USA), supplemented with 10% fetal bovine serum (Invitrogen) and G418 (Invitrogen) at a final concentration of 200 mg/L and maintained in 5% CO2 at 37° C.
HepG2.2.15 cells were seeded in duplicate into white, 96-well plates at 1.5×10^4 cells/well. The cells were treated with a three-fold serial dilution series of the compounds in DMSO. The final DMSO concentration in all wells was 1% and DMSO was used as no drug control.
The HBsAg chemiluminescence immunoassay (CLIA) kit (Autobio Diagnostics Co., Zhengzhou, China, Catalog number: CL0310-2) was used to measure the levels of secreted HBV antigens semi-quantitatively. For the detection 50 μL/well culture supernatant was used and HBsAg was quantified using HBsAg chemiluminescence immunoassay (CLIA) kit (Autobio Diagnostics Co., Zhengzhou, China, Catalog number: CL0310-2), 50 μL of the supernatant was transferred to the CLIA assay plate and 50 μL of enzyme conjugate reagent was added into each well. The plates were sealed and gently agitated for 1 hour at room temperature. The supernatant-enzyme-mixture was discarded and wells were washed 6 times with 300 μL of PBS.
The residual liquid was removed by plating the CLIA plate right side down on absorbent tissue paper. 25 μL of substrates A and B were added to each well. Luminance was measured using a luminometer (Mithras LB 940 Multimode Microplate Reader) after 10 minutes incubation. Dose-response curves were generated and the IC50 value was extrapolated by using the E-WorkBook Suite (ID Business Solutions Ltd., Guildford, UK). The IC50 was defined as the compound concentration (or conditioned media log dilution) at which HBsAg secretion was reduced by 50% compared to the no drug control.
The compounds according to formula I were tested for their capacity to inhibit HBsAg as described herein.

[1] = Hepatitis B virus, HepG2.2.15, HBsAg secretion

Row | Structure (SMILES) | IC50 (HBsAg secretion) | IC50 [1]
1 | CC1c2cnc(-c3ncccn3)nc2CCN1c1cc(N2CCN(S(C)(=O)=O)CC2)cc(F)n1 (single isomer, unassigned) [Example 98, (+)-6-[6-Fluoro-4-(4-methylsulfonylpiperazin-1-yl)-2-pyridyl]-5-methyl-2-pyrimidin-2-yl-7,8-dihydro-5H-pyrido[4,3-d]pyrimidine] | 410 nM | –
2 | CC1c2cnc(-c3ncccn3)nc2CCN1c1cc(NCCCCCC(=O)O)cc(F)n1 (stereo not shown) [Example 1, 6-[[2-fluoro-6-(5-methyl-2-pyrimidin-2-yl-7,8-dihydro-5H-pyrido[4,3-d]pyrimidin-6-yl)-4-pyridyl]amino]hexanoic acid] | – | 1500 nM
3 | CC1c2cnc(-c3ncccn3)nc2CCN1c1cc(F)cc(NCCCCCC(=O)O)n1 (stereo not shown) [Example 2, 6-[[4-fluoro-6-(5-methyl-2-pyrimidin-2-yl-7,8-dihydro-5H-pyrido[4,3-d]pyrimidin-6-yl)-2-pyridyl]amino]hexanoic acid] | – | 155 nM
4 | CC1c2cnc(-c3ncccn3)nc2CCN1c1cc(NC(=O)CO)cc(F)n1 (stereo not shown) [Example 3, N-[2-Fluoro-6-(5-methyl-2-pyrimidin-2-yl-7,8-dihydro-5H-pyrido[4,3-d]pyrimidin-6-yl)-4-pyridyl]-2-hydroxy-acetamide] | – | 60 nM
5 | CC1CN(c2cc(F)nc(N3CCc4nc(-c5ncccn5)ncc4C3C)c2)CCO1 (stereo not shown) [Example 4, 4-[2-fluoro-6-(5-methyl-2-pyrimidin-2-yl-7,8-dihydro-5H-pyrido[4,3-d]pyrimidin-6-yl)-4-pyridyl]-2-methyl-morpholine] | – | 8 nM
6 | CC1CN(c2cc(F)cc(N3CCc4nc(-c5ncccn5)ncc4C3C)n2)CCO1 (stereo not shown) [Example 5, 4-[4-fluoro-6-(5-methyl-2-pyrimidin-2-yl-7,8-dihydro-5H-pyrido[4,3-d]pyrimidin-6-yl)-2-pyridyl]-2-methyl-morpholine] | – | 20 nM
7 | CCC1CN(c2cc(F)nc(N3CCc4nc(-c5ncccn5)ncc4C3C)c2)CCO1 (stereo not shown) [Example 6, 2-ethyl-4-[2-fluoro-6-(5-methyl-2-pyrimidin-2-yl-7,8-dihydro-5H-pyrido[4,3-d]pyrimidin-6-yl)-4-pyridyl]morpholine] | – | 9 nM
8 | CCC1CN(c2cc(F)cc(N3CCc4nc(-c5ncccn5)ncc4C3C)n2)CCO1 (stereo not shown) [Example 7, 2-ethyl-4-[4-fluoro-6-(5-methyl-2-pyrimidin-2-yl-7,8-dihydro-5H-pyrido[4,3-d]pyrimidin-6-yl)-2-pyridyl]morpholine] | – | 42 nM
9 | CC1c2cnc(-c3ncccn3)nc2CCN1c1cc(N2CCOC(C)(C)C2)cc(F)n1 (stereo not shown) [Example 8, 4-[2-fluoro-6-(5-methyl-2-pyrimidin-2-yl-7,8-dihydro-5H-pyrido[4,3-d]pyrimidin-6-yl)-4-pyridyl]-2,2-dimethyl-morpholine] | – | 11 nM
10 | CC1c2cnc(-c3ncccn3)nc2CCN1c1cc(F)cc(N2CCOC(C)(C)C2)n1 (stereo not shown) [Example 9, 4-[4-fluoro-6-(5-methyl-2-pyrimidin-2-yl-7,8-dihydro-5H-pyrido[4,3-d]pyrimidin-6-yl)-2-pyridyl]-2,2-dimethyl-morpholine] | – | 29 nM
11 | CC1c2cnc(-c3ncccn3)nc2CCN1c1cc(N2C3CCC2COC3)cc(F)n1 (stereo not shown) [Example 10, 8-[2-fluoro-6-(5-methyl-2-pyrimidin-2-yl-7,8-dihydro-5H-pyrido[4,3-d]pyrimidin-6-yl)-4-pyridyl]-3-oxa-8-azabicyclo[3.2.1]octane] | – | 39 nM
12 | CC1c2cnc(-c3ncccn3)nc2CCN1c1cc(F)cc(N2C3CCC2COC3)n1 (stereo not shown) [Example 11, 8-[4-fluoro-6-(5-methyl-2-pyrimidin-2-yl-7,8-dihydro-5H-pyrido[4,3-d]pyrimidin-6-yl)-2-pyridyl]-3-oxa-8-azabicyclo[3.2.1]octane] | – | 188 nM
13 | CC1c2cnc(-c3ncccn3)nc2CCN1c1cc(N2CCC3(CCOC3)C2)cc(F)n1 (stereo not shown) [Example 12, 7-[2-fluoro-6-(5-methyl-2-pyrimidin-2-yl-7,8-dihydro-5H-pyrido[4,3-d]pyrimidin-6-yl)-4-pyridyl]-2-oxa-7-azaspiro[4.4]nonane] | – | 8 nM
14 | COCC1CN(c2cc(F)nc(N3CCc4nc(-c5ncccn5)ncc4C3C)c2)CCO1 (stereo not shown) [Example 14, 4-[2-fluoro-6-(5-methyl-2-pyrimidin-2-yl-7,8-dihydro-5H-pyrido[4,3-d]pyrimidin-6-yl)-4-pyridyl]-2-(methoxymethyl)morpholine] | – | 17 nM
15 | COCC1CN(c2cc(F)cc(N3CCc4nc(-c5ncccn5)ncc4C3C)n2)CCO1 (stereo not shown) [Example 15, 4-[4-fluoro-6-(5-methyl-2-pyrimidin-2-yl-7,8-dihydro-5H-pyrido[4,3-d]pyrimidin-6-yl)-2-pyridyl]-2-(methoxymethyl)morpholine] | – | 30 nM
16 | CC(=O)N1CCN(c2cc(F)nc(N3CCc4nc(-c5ncccn5)ncc4C3C)c2)CC1 (stereo not shown) [Example 16, 1-[4-[2-fluoro-6-(5-methyl-2-pyrimidin-2-yl-7,8-dihydro-5H-pyrido[4,3-d]pyrimidin-6-yl)-4-pyridyl]piperazin-1-yl]ethanone] | – | 14 nM
17 | CC(=O)N1CCN(c2cc(F)cc(N3CCc4nc(-c5ncccn5)ncc4C3C)n2)CC1 (stereo not shown) [Example 17, 1-[4-[4-fluoro-6-(5-methyl-2-pyrimidin-2-yl-7,8-dihydro-5H-pyrido[4,3-d]pyrimidin-6-yl)-2-pyridyl]piperazin-1-yl]ethanone] | – | 15 nM
18 | CC1CCN(c2cc(F)nc(N3CCc4nc(-c5ncccn5)ncc4C3C)c2)C1 (stereo not shown) [Example 18, 6-[6-fluoro-4-(3-methylpyrrolidin-1-yl)-2-pyridyl]-5-methyl-2-pyrimidin-2-yl-7,8-dihydro-5H-pyrido[4,3-d]pyrimidine] | – | 3 nM
19 | CC1CCN(c2cc(F)cc(N3CCc4nc(-c5ncccn5)ncc4C3C)n2)C1 (stereo not shown) [Example 19, 6-[4-fluoro-6-(3-methylpyrrolidin-1-yl)-2-pyridyl]-5-methyl-2-pyrimidin-2-yl-7,8-dihydro-5H-pyrido[4,3-d]pyrimidine] | – | 11 nM
20 | COC1CCN(c2cc(F)cc(N3CCc4nc(-c5ncccn5)ncc4C3C)n2)C1 (stereo not shown) [Example 21, 6-[4-fluoro-6-(3-methoxypyrrolidin-1-yl)-2-pyridyl]-5-methyl-2-pyrimidin-2-yl-7,8-dihydro-5H-pyrido[4,3-d]pyrimidine] | – | 13 nM
21 | CC1c2cnc(-c3ncccn3)nc2CCN1c1cc(N2CCC(F)(F)C2)cc(F)n1 (stereo not shown) [Example 22, 6-[4-(3,3-difluoropyrrolidin-1-yl)-6-fluoro-2-pyridyl]-5-methyl-2-pyrimidin-2-yl-7,8-dihydro-5H-pyrido[4,3-d]pyrimidine] | – | 4 nM
22 | CC1c2cnc(-c3ncccn3)nc2CCN1c1cc(F)cc(N2CCC(F)(F)C2)n1 (stereo not shown) [Example 23, 6-[6-(3,3-difluoropyrrolidin-1-yl)-4-fluoro-2-pyridyl]-5-methyl-2-pyrimidin-2-yl-7,8-dihydro-5H-pyrido[4,3-d]pyrimidine] | – | 5 nM
23 | CC1c2cnc(-c3ncccn3)nc2CCN1c1cc(N2CCOC(CO)C2)cc(F)n1 (stereo not shown) [Example 24, [4-[2-fluoro-6-(5-methyl-2-pyrimidin-2-yl-7,8-dihydro-5H-pyrido[4,3-d]pyrimidin-6-yl)-4-pyridyl]morpholin-2-yl]methanol] | – | 38 nM
24 | CC1c2cnc(-c3ncccn3)nc2CCN1c1cc(F)cc(N2CCOC(CO)C2)n1 (stereo not shown) [Example 25, [4-[4-fluoro-6-(5-methyl-2-pyrimidin-2-yl-7,8-dihydro-5H-pyrido[4,3-d]pyrimidin-6-yl)-2-pyridyl]morpholin-2-yl]methanol] | – | 46 nM
25 | CC1c2cnc(-c3ncccn3)nc2CCN1c1cc(N2CCOC(C(=O)O)C2)cc(F)n1 (stereo not shown) [Example 26, 4-[2-fluoro-6-(5-methyl-2-pyrimidin-2-yl-7,8-dihydro-5H-pyrido[4,3-d]pyrimidin-6-yl)-4-pyridyl]morpholine-2-carboxylic acid] | – | 2320 nM
26 | CC1c2cnc(-c3ncccn3)nc2CCN1c1cc(F)cc(N2CCOC(C(=O)O)C2)n1 (stereo not shown) [Example 27, 4-[4-fluoro-6-(5-methyl-2-pyrimidin-2-yl-7,8-dihydro-5H-pyrido[4,3-d]pyrimidin-6-yl)-2-pyridyl]morpholine-2-carboxylic acid] | – | 3760 nM
27 | CC1c2cnc(-c3ncccn3)nc2CCN1c1cc(N2CCOC(CC(=O)O)C2)cc(F)n1 (stereo not shown) [Example 28, 2-[4-[2-fluoro-6-(5-methyl-2-pyrimidin-2-yl-7,8-dihydro-5H-pyrido[4,3-d]pyrimidin-6-yl)-4-pyridyl]morpholin-2-yl]acetic acid] | – | 1820 nM
28 | CC1c2cnc(-c3ncccn3)nc2CCN1c1cc(F)cc(N2CCOC(CC(=O)O)C2)n1 (stereo not shown) [Example 29, 2-[4-[4-fluoro-6-(5-methyl-2-pyrimidin-2-yl-7,8-dihydro-5H-pyrido[4,3-d]pyrimidin-6-yl)-2-pyridyl]morpholin-2-yl]acetic acid] | – | 722 nM
